# Laboratory results taken from patent US10689354B2, “Aminoazole derivative” (Teijin Pharma Limited, priority 2015, dated 2020).
# Target: T1, androgen receptor (AR-LBD) (Rattus norvegicus, UniProt P15207)
# T1 construct: 5 μL of 2×AR-LBD/Fluoromone AL Red Complex contained in the kit; purchased Invitrogen
# T1 sequence (P15207 651-882 limits assumed): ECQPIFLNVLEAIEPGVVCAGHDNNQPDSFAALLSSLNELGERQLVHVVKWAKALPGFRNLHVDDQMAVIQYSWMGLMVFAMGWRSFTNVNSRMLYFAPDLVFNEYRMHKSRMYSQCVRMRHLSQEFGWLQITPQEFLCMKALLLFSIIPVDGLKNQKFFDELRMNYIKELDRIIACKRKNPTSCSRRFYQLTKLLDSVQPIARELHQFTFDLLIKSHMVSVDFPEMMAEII
# Test: Evaluation of androgen receptor affinity (PolarScreen Androgen Receptor Competitor Assay Kit, Red; fluorescence polarization)
# Conditions: 22° C. for 5 hours, relative to binding rate of 1 μM DHT, read-out: AR affinity (pEC50) (converted)
# Method: Evaluation of an Androgen Receptor Affinity
# To examine the interaction of a compound with an androgen receptor, evaluation was carried out in accordance with the following procedure using PolarScreen™ Androgen Receptor Competitor Assay Kit, Red (Invitrogen). To 2 wells each of a 384 well black plate was added 5 μL of the compound solution. To each well was added 5 μL of 2×AR-LBD/Fluoromone AL Red Complex contained in the kit and the samples were reacted at 22° C. for 5 hours. After 5 hours of the reaction, fluorescence polarization was measured and the affinity was evaluated. The affinity of the compound was determined by comparing to the binding rate of 1 μM of dihydrotestosterone (DHT), and quantified the logarithm value (pEC50) of reciprocal value of the effective concentration of the compound which is equal to 50% of the binding rate by applying a 4 parameter goodness-of-fit calculation.
row,Structure (SMILES),EC50 [µM]
1,"Cc1sc(N(Cc2ccccc2)c2ccc3[nH]ccc3c2)nc1C(=O)NS(C)(=O)=O [Compound 336, 2-[benzyl(1H-indol-5-yl)amino]-5-methyl-N-methylsulfonyl-thiazole-4-carboxamide]",> 2
2,"CCS(=O)(=O)NC(=O)c1nc(N(CCc2ccc(Cl)cc2)CC2CCCCC2)sc1C [Compound 698, 2-[2-(4-chlorophenyl)ethyl-(cyclohexylmethyl)amino]-N-ethylsulfonyl-5-methyl-thiazole-4-carboxamide]",0.794
3,"Cc1sc(N(Cc2ccccc2)c2ccc(C#N)cn2)nc1C(=O)NS(C)(=O)=O [Compound 602, 2-[benzyl-(5-cyano-2-pyridyl)amino]-5-methyl-N-methylsulfonyl-thiazole-4-carboxamide]",0.501
4,"Cc1sc(N(CCc2ccc(C#N)cc2)CC2CCCCC2)nc1C(=O)NS(=O)(=O)C1CC1 [Compound 718, 2-[2-(4-cyanophenyl)ethyl-(cyclohexylmethyl)amino]-N-cyclopropylsulfonyl-5-methyl-thiazole-4-carboxamide]",> 2
5,"Cc1sc(N(Cc2ccccc2)c2cccc(CCO)c2)nc1C(=O)NS(C)(=O)=O [Compound 605, 2-[N-benzyl-3-(2-hydroxyethyl)anilino]-5-methyl-N-methylsulfonyl-thiazole-4-carboxamide]",> 2
6,"COC(=O)c1ccc(N(Cc2ccccc2)c2nc(C(=O)NS(C)(=O)=O)c(C)s2)nn1 [Example 239, methyl 6-[benzyl-[5-methyl-4-(methylsulfonylcarbamoyl)thiazol-2-yl]amino]pyridazine-3-carboxylate]",> 2
7,"Cc1sc(N(Cc2ccccc2)c2ccnc3ccccc23)nc1C(=O)NS(C)(=O)=O [Example 236, 2-[benzyl(4-quinolyl)amino]-5-methyl-N-methylsulfonyl-thiazole-4-carboxamide]",> 2

# The next lines start with the values.
row,EC50 [µM],Structure (SMILES)
1,> 2,"Cc1sc(N(CC(C)(C)C)c2ccc(C#N)cc2)nc1C(=O)NS(C)(=O)=O [Compound 74, 2-[4-cyano-N-(2,2-dimethylpropyl)anilino]-5-methyl-N-methylsulfonyl-thiazole-4-carboxamide]"
2,> 2,"Cc1sc(N(Cc2nccs2)c2ccc(C#N)cc2)nc1C(=O)NS(C)(=O)=O [Compound 392, 2-[4-cyano-N-(thiazol-2-ylmethyl)anilino]-5-methyl-N-methylsulfonyl-thiazole-4-carboxamide]"
3,> 2,"Cc1sc(N(Cc2ccccc2)c2ccc(C#N)cc2)nc1C(=O)NS(=O)(=O)c1ccccc1 [Compound 375, N-(benzenesulfonyl)-2-(N-benzyl-4-cyano-anilino)-5-methyl-thiazole-4-carboxamide]"
4,> 2,"Cc1sc(N(CC(=O)N2CCCCC2)c2ccc(C#N)cc2)nc1C(=O)NS(C)(=O)=O [Compound 72, 2-(4-cyano-N-[2-oxo-2-(1-piperidyl)ethyl]anilino)-5-methyl-N-methylsulfonyl-thiazole-4-carboxamide]"
5,> 2,"Cc1sc(N(CC2CCCC(O)C2)c2ccc(C#N)cc2)nc1C(=O)NS(C)(=O)=O (stereo not drawn) [Compound 427, 2-[4-cyano-N-[(3-hydroxycyclohexyl)methyl]anilino]-5-methyl-N-methylsulfonyl-thiazole-4-carboxamide]"
6,> 2,"Cc1sc(N(Cc2ccccc2)Cc2ccc(C#N)cc2)nc1C(=O)NS(C)(=O)=O [Example 289, 2-[benzyl-[(4-cyanophenyl)methyl]amino]-5-methyl-N-methylsulfonyl-thiazole-4-carboxamide]"
7,> 2,"Cc1nc(CCN(c2ccc(C#N)cc2)c2nc(C(=O)NS(C)(=O)=O)c(C)s2)cs1 [Compound 135, 2-[4-cyano-N-[2-(2-methylthiazol-4-yl)ethyl]anilino]-5-methyl-N-methylsulfonyl-thiazole-4-carboxamide]"
8,> 2,"Cc1sc(N(Cc2ccc(OC(F)(F)F)cc2)c2ccc(C#N)cc2)nc1C(=O)NS(=O)(=O)CCCN1CCOCC1 [Compound 541, 2-[4-cyano-N-[[4-(trifluoromethoxy)phenyl]methyl]anilino]-5-methyl-N-(3-morpholinopropylsulfonyl)thiazole-4-carboxamide]"
